Measurements published in patent publication US12391646B2, “Using adiponectin receptor agonists to treat inflammation and bone diseases in diabetes” (Trustees of Tufts College, priority 2020, dated 2025).

What was measured:
[1] = tested on: NF-κB and p38 MAPK signaling pathways, APPL1; test: Western blotting of signaling proteins in Raw264.7 cells; format: cell-based; settings: for densitometry value p-IRAK4 (FIG. 5a) / densitometry value p-P38 (FIG. 5a) / densitometry value APPL1 (FIG. 5e), without LPS / densitometry value APPL1 (FIG. 5e), with LPS: relative to first lane 1.00, lane order inferred; for densitometry value p-IRAK4 (FIG. 5a) / densitometry value p-P38 (FIG. 5a): APR 20 μM or AdipoAI 5 μM 24 h, LPS 30 min; for densitometry value APPL1 (FIG. 5e), without LPS: APR 20 μM; for densitometry value APPL1 (FIG. 5e), with LPS: LPS alone 0.32
Experimental: FIG. 5 AdipoAI inhibition of NF-κB and p38 MAPK signaling pathways is dependent of AdipoR1/APPL1 axis in LPS-induced macrophages. (a) Impact of AdipoAI in the phosphorylation of related signaling proteins by western blotting. Raw264.7 cells were pretreated with APR (20 μM) or AdipoAI (5 μM) for 24 h followed by incubation with LPS (100 ng/mL) for an additional 30 min. Representative images are shown, and quantitative analysis of protein expression was performed by densitometric analysis (see lower panel), densitometry values—p-IRAK4: 1.00, 0.13, 0.09; p-P38: 1.00, 0.76, 0.26. (b) Expression of p65 protein in cytoplasmic and nuclear extracts of Raw264.7 cells. Representative images of p65 expression are presented along with Lamin B1 and β-actin expression which were used as internal loading controls. Quantitative analysis of protein expression was performed by densitometric analysis (lower panel), Densitometry values-p-P65: 0.53, 1.00, 0.38, 0.76; P65: 0.32, 1.00, 0.21, 0.53. (c) RAW 264.7 cells were transfected with siRNA targeting cither AdipoR1, AdipoR2, APPL1, APPL2 or scrambled control siRNA for 24 h, followed by stimulation with AdipoAI or APR for 24 h, then incubation with LPS for additional 6 h. Transfection efficiency of siRNA and mRNA expression levels of IL-6, IL-1β were measured by qPCR and normalized with GAPDH mRNA levels. Data were expressed as the mean±SEM at five biological independent experiments. One-way ANOVA test for multiple-group comparisons, *P<0.05, significant differences between each indicated group. ns, not significant. (d) RAW 264.7 cells were stimulated with LPS, AdipoAI, or APR for different times and proteins levels determined by western blotting. Representative western blotting images are shown along with β-actin used as an internal loading control and densitometric analysis. Densitometry values-Panel 1: APPL1: 1.00, 0.48, 0.44; Panel 2: APPL1: 1.00, 2.17, 5.38; Panel 3: APPL1: 1.00, 2.11, 4.82. (e) Raw264.7 cells were pretreated with APR (20 μM) or AdipoAI (5 μM) for 24 h followed by incubation with LPS (100 ng/mL) for additional 6 h for the measurement of related proteins by WB. Representative images are shown along with β-actin as an internal loading control and densitometric analysis. Densitometry values—APPL1: 1.00, 1.53, 1.58, 0.32, 0.45, 0.67. (f) Raw264.7 cells and (g) BMMs were transfected with siRNA targeting APPL1 or scrambled control siRNA for 24 h, followed by stimulation with AdipoAI for 24 h, then incubation with LPS for additional 6 h for western blotting analysis. Densitometry values for f—APPL1: 1.00, 0.43; p-IRAK4: 1.00, 1.31; p-P-38:1.00, 1.47. Densitometry values for g—APPL1: 1.00, 0.38; p-IRAK4: 1.00, 1.30; p-P38: 1.00, 1.67. Representative images are shown along with β-actin as an internal loading control, and densitometric analysis. No statistical analysis of western blotting for n=3.
Total cellular extracts were prepared using RIPA Lysis and Extraction Buffer containing three Protease Inhibitors (Thermo Scientific). Cytoplasmic and nuclear extracts were purified using NE-PER™ Nuclear and Cytoplasmic Extraction Reagents (Thermo Scientific). Experimental details of western blotting are in accordance with British Journal of Pharmacology guidelines (Alexander et al., 2018) and western blot analyses were performed as previously described (J. Zhang et al., 2017). Briefly, the total protein concentration was quantified using BCA kit (P1511; Applygen Technologies Inc., Beijing, China). The samples were separated by SDS-PAGE and electrophoretically transferred to a polyvinylidene difluoride membrane (Merck Millipore, Darmstadt, Germany). The membranes were blocked with 5% skim milk for 1 to 2 hr at room temperature. […]

[2] = tested on: RAW 264.7 cells (osteoclast differentiation); test: RANKL-induced osteoclast differentiation of RAW 264.7 cells; format: cell-based; settings: for number of osteoclast-like cells (TRAP staining): co-culture with RANKL 6 days, AdipoRon 20 μM, AdipoAI 5 μM
Experimental: RAW 264.7 cells (ATCC, Manassas, VA, USA) were cultured and passaged in DMEM supplemented with 10% (v/v) FBS (Invitrogen, Grand Island, NY, USA) and 1% Penicillin-Streptomycin (Gibco, Gaithersburg, MD, USA). For the induction of osteoclastogenesis, RAW 264.7 cells were cultured 24 in α-MEM supplemented with 10% FBS and 1% Penicillin-Streptomycin in the presence of 100 ng/ml RANKL (Peprotech, Rocky Hill, NJ, USA) for 2 days, and subsequently treated or not with AdipoRon or AdipoAI for another 2 days changing cell culture medium every 2 days. After a total of […] of culture, morphologic examination was performed, as was mRNA and protein expression. To simulate high glucose environment in vitro, α-MEM was supplemented with D-glucose to 25 mmol/l (high glucose) or 5 mmol/l (physiological glucose). 20 mmol/l D-mannitol served as an osmotic control.
Total RNA was isolated from cell cultures and gingival soft tissues using TriZol reagent (Life Technologies, Carlsbad, CA, USA) according to the manufacturer's instructions^24. Reverse transcription was performed using the PrimeScript RT Master Mix (Takara Bio, Otsu, Japan) and real-time-qPCR analyses were performed using SYBR-Green Real-Time PCR Master Mix (Takara Bio, Otsu, Japan) as described earlier^27.

[3] = higher concentration, RANKL 100 ng/ml
[4] = LPS-induced Raw264.7 cells, AdipoAI 5 μM

Row | Structure (SMILES) | APPL1 protein expression ([1]; Raw264.7 cells) | densitometry value p-IRAK4 (FIG. 5a) [1] | densitometry value p-P38 (FIG. 5a) [1] | densitometry value APPL1 (FIG. 5e), without LPS ([1]; AdipoAI 5 μM) | densitometry value APPL1 (FIG. 5e), with LPS [1] | downregulation of TRAP mRNA expression ([2]; 5 μM, RANKL 100 ng/ml) | number of osteoclast-like cells (TRAP staining) [2] | inhibition of TRAP mRNA expression [2, 3] [%] | inhibition of cathepsin K mRNA expression [2, 3] [%] | phosphorylation of AKT, JNK or ERK ([1]; LPS-induced Raw264.7 cells) | decrease of phosphorylation of IRAK4 [1, 4] [%] | decrease of phosphorylation of p38 [1, 4] [%] | AdipoR1 or AdipoR2 protein levels ([1]; Raw264.7 cells) | LPS-induced p65 phosphorylation and nuclear translocation ([1]; Raw264.7 cells) | downregulation of cathepsin K mRNA expression ([2]; 5 μM, RANKL 100 ng/ml) [%]
1 | O=C(COc1ccc(C(=O)c2ccccc2)cc1)NC1CCN(Cc2ccccc2)CC1 [AdipoRon, reference compound] | increased | 0.13 | 0.76 | 1.53 | 0.45 | no significant inhibition in TRAP mRNA expression | significantly reduced the number of osteoclast-like cells | 64.5 | 65.1 |  |  |  |  |  | 
2 | COc1ccc(CN2CCC(NC(=O)COc3ccc(C(=O)c4ccc(Cl)cc4)cc3)CC2)cc1 [Compound 3] | increased APPL1 expression | 0.09 | 0.26 | 1.58 | 0.67 | 97.0% | significantly reduced the number of osteoclast-like cells |  |  | did not significantly alter phosphorylation of AKT, JNK or ERK | 70 | 70 | did not influence AdipoR1 or AdipoR2 protein levels | suppressed LPS-induced p65 phosphorylation and nuclear translocation | 87.5
